The values below come from publication PMC6364417, “Kinase inhibitor library screening identifies synergistic drug combinations effective in sensitive and resistant melanoma cells” (Journal of Experimental & Clinical Cancer Research : CR, 2019).

As a reminder, the viability is a read-out of living cells in per cent, often relative to untreated cells.

Holding throughout (assay): Kinase inhibitor library screening, PrestoBlue cell viability, 1 or 10 μM, 72 h
Series [1] deals with 501Mel-GP cells (Dabrafenib-resistant).
In series [2] the test system is A375-XP cells (Vemurafenib-resistant).
Series [3] concerns 501Mel-XP cells (Vemurafenib-resistant).
The test system of series [4] is IGR37-GP cells (Dabrafenib-resistant).
Series [5] has as its system IGR37 cells (parental).
For series [6], the system named is IGR37-XP cells (Vemurafenib-resistant).
Series [7] has as its system A375 cells (parental).
The test system of series [8] is 501Mel cells (parental). Put shortly:
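Parental cells and Vemurafenib-resistant (XP) or Dabrafenib-resistant (GP) derivatives were treated with library kinase inhibitors at 1 and 10 μM for 72 h. Viability measured by PrestoBlue and expressed as % of untreated cells, at least in duplicate.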

In series [9] the test system is A375-GP cells (Dabrafenib-resistant).

As for `Cc1ccc(Nc2nccc(N(C)c3ccc4c(C)n(C)nc4c3)n2)cc1S(N)(=O)=O.Cl` [Pazopanib HCl], the “cell viability (kinase inhibitor library screening)” value in series [1] (501Mel GP, 1μΜ, in %) was 95.6; in series [1] (501Mel GP, 10μΜ, in %), 65.3; in [2] (A375 XP, 10μΜ, in %) it was 75.2; in series [3] (501Mel XP, 1μΜ, in %), 88.8; in [3] (501Mel XP, 10μΜ, in %), 48.8; in series [4] (IGR37 GP, 1μΜ, in %), 83.2. In addition, the “cell viability (kinase inhibitor library screening)” value was found to be 61.1 in series [4] (IGR37 GP, 10μΜ, in %); 96.1 in series [5] (IGR37 Parental, 1μΜ, in %); 84.7 in series [5] (IGR37 Parental, 10μΜ, in %); 65.8 in series [6] (IGR37 XP, 10μΜ, in %); 71.9 in series [7] (A375 Parental, 10μΜ, in %); 99.1 in series [8] (501Mel Parental, 1μΜ, in %). The “cell viability (kinase inhibitor library screening)” value came out at 86.1 in [8] (501Mel Parental, 10μΜ, in %); 98.9 in series [9] (A375 GP, 1μΜ, in %); 71.0 in [9] (A375 GP, 10μΜ, in %).
For `CCOc1cc2ncc(C#N)c(Nc3ccc(F)c(Cl)c3)c2cc1NC(=O)/C=C/CN(C)C` [Pelitinib (EKB-569)], in series [1] (501Mel GP, 1μΜ, 72 h, in %), the “cell viability, 501Mel GP, 1μΜ” value is 102.6. The “cell viability, 501Mel GP, 10μΜ” value in [1] (501Mel GP, 10μΜ, 72 h, in %) is listed as 92.4. Further, the “cell viability, A375 XP, 1μΜ” value in series [2] (A375 XP, 1μΜ, 72 h, in %) is recorded as 104.6. For the same compound, in [2] (A375 XP, 10μΜ, 72 h, in %), the “cell viability, A375 XP, 10μΜ” value is 96.9. For the same compound, the “cell viability, 501Mel XP, 10μΜ” value in [3] (501Mel XP, 10μΜ, 72 h, in %) worked out at 91.9. This compound also came in with a cell viability, IGR37 GP, 10μΜ in series [4] (IGR37 GP, 10μΜ, 72 h) of 92.3%. Also, the “cell viability, IGR37 GP, 1μΜ” value in series [4] (IGR37 GP, 1μΜ, 72 h, in %) is on record as 97.5. Moreover, the “cell viability, IGR37 Parental, 1μΜ” value in [5] (IGR37 Parental, 1μΜ, 72 h, in %) came to 99.8. Also, the “cell viability, IGR37 Parental, 10μΜ” value in [5] (IGR37 Parental, 10μΜ, 72 h, in %) was 97.0. The compound also displayed a cell viability, IGR37 XP, 10μΜ in series [6] (IGR37 XP, 10μΜ, 72 h) of 77.5%. Besides, in [6] (IGR37 XP, 1μΜ, 72 h, in %), the “cell viability, IGR37 XP, 1μΜ” value was found to be 97.8. Moreover, in [7] (A375 Parental, 1μΜ, 72 h, in %), the “cell viability, A375 Parental, 1μΜ” value was found to be 103.3. In [7] (A375 Parental, 10μΜ, 72 h, in %), the “cell viability, A375 Parental, 10μΜ” value amounted to 79.2. Also, the “cell viability, 501Mel Parental, 1μΜ” value in series [8] (501Mel Parental, 1μΜ, 72 h, in %) turned out to be 102.9. Also, the “cell viability, 501Mel Parental, 10μΜ” value in [8] (501Mel Parental, 10μΜ, 72 h, in %) was determined as 89.9. In addition, the “cell viability, A375 GP, 1μΜ” value in series [9] (A375 GP, 1μΜ, 72 h, in %) was determined as 98.8. In series [9] (A375 GP, 10μΜ, 72 h, in %), the “cell viability, A375 GP, 10μΜ” value is 88.7.
Consider `Oc1cc(O)cc(/C=C/c2ccc(O)c(O)c2)c1` [Piceatannol], for which the “cell viability (kinase inhibitor library screening)” value is reported as 95.8 in series [1] (501Mel GP, 1μΜ, in %); 80.4 in series [1] (501Mel GP, 10μΜ, in %); 98.5 in series [2] (A375 XP, 1μΜ, in %); 89.0 in series [2] (A375 XP, 10μΜ, in %); 96.8 in series [3] (501Mel XP, 1μΜ, in %); 81.1 in series [3] (501Mel XP, 10μΜ, in %). Moreover, the “cell viability (kinase inhibitor library screening)” value in [4] (IGR37 GP, 1μΜ, in %) came out at 91.5; in [4] (IGR37 GP, 10μΜ, in %), 85.8; in [5] (IGR37 Parental, 1μΜ, in %) it was 98.6; in series [5] (IGR37 Parental, 10μΜ, in %), 86.6; in series [6] (IGR37 XP, 1μΜ, in %), 92.0; in series [6] (IGR37 XP, 10μΜ, in %) it was 82.4. Moreover, the “cell viability (kinase inhibitor library screening)” value turned out to be 98.9 in [7] (A375 Parental, 1μΜ, in %); 76.1 in series [7] (A375 Parental, 10μΜ, in %); 98.4 in [8] (501Mel Parental, 1μΜ, in %); 84.8 in series [8] (501Mel Parental, 10μΜ, in %); 93.0 in [9] (A375 GP, 1μΜ, in %); 80.7 in [9] (A375 GP, 10μΜ, in %).
Regarding `CC(C)(C)c1cc(NC(=O)Nc2ccc(-c3cn4c(n3)sc3cc(OCCN5CCOCC5)ccc34)cc2)no1` [Quizartinib (AC220)], the viability at 1 µM in [1] (Homo sapiens, 72 h, read-out: cell viability, 501Mel GP, 1μΜ) amounted to 109%; in series [2] (Homo sapiens, A-375, 72 h, read-out: cell viability, A375 XP, 1μΜ), 108%; in [3] (Homo sapiens, 72 h, read-out: cell viability, 501Mel XP, 1μΜ), 94.6%; in series [4] (Homo sapiens, IGR-37, 72 h, read-out: cell viability, IGR37 GP, 1μΜ), 67.8%; in series [5] (Homo sapiens, IGR-37, 72 h, read-out: cell viability, IGR37 Parental, 1μΜ), 97.3%; in [6] (Homo sapiens, IGR-37, 72 h, read-out: cell viability, IGR37 XP, 1μΜ), 43.9%. Besides, the viability at 1 µM in [7] (Homo sapiens, A-375, 72 h, read-out: cell viability, A375 Parental, 1μΜ) turned out to be 104%; in [8] (Homo sapiens, 72 h, read-out: cell viability, 501Mel Parental, 1μΜ), 95.1%; in series [9] (Homo sapiens, A-375, 72 h, read-out: cell viability, A375 GP, 1μΜ), 99.4%. The viability at 10 µM was determined as 93% in series [1] (Homo sapiens, 72 h, read-out: cell viability, 501Mel GP, 10μΜ); 96.3% in series [2] (Homo sapiens, A-375, 72 h, read-out: cell viability, A375 XP, 10μΜ); 80.5% in series [3] (Homo sapiens, 72 h, read-out: cell viability, 501Mel XP, 10μΜ); 28.8% in [4] (Homo sapiens, IGR-37, 72 h, read-out: cell viability, IGR37 GP, 10μΜ); 102% in [5] (Homo sapiens, IGR-37, 72 h, read-out: cell viability, IGR37 Parental, 10μΜ); 7.2% in series [6] (Homo sapiens, IGR-37, 72 h, read-out: cell viability, IGR37 XP, 10μΜ). The viability at 10 µM in series [7] (Homo sapiens, A-375, 72 h, read-out: cell viability, A375 Parental, 10μΜ) amounted to 96.3%; in series [8] (Homo sapiens, 72 h, read-out: cell viability, 501Mel Parental, 10μΜ), 89.6%; in [9] (Homo sapiens, A-375, 72 h, read-out: cell viability, A375 GP, 10μΜ) it was 88.8%.
On to `COc1cc(Nc2ncc(F)c(Nc3ccc4c(n3)NC(=O)C(C)(C)O4)n2)cc(OC)c1OC` [R406(free base)], for which the “cell viability (kinase inhibitor library screening)” value was determined as 93.8 in series [1] (501Mel GP, 1μΜ, in %); 48.0 in [1] (501Mel GP, 10μΜ, in %); 103.9 in [2] (A375 XP, 1μΜ, in %); 63.6 in series [2] (A375 XP, 10μΜ, in %); 77.6 in series [3] (501Mel XP, 1μΜ, in %); 29.6 in series [3] (501Mel XP, 10μΜ, in %). In addition, the “cell viability (kinase inhibitor library screening)” value stood at 84.7 in series [4] (IGR37 GP, 1μΜ, in %); 45.4 in series [4] (IGR37 GP, 10μΜ, in %); 97.4 in series [5] (IGR37 Parental, 1μΜ, in %); 86.8 in series [5] (IGR37 Parental, 10μΜ, in %); 92.0 in series [6] (IGR37 XP, 1μΜ, in %); 20.0 in series [6] (IGR37 XP, 10μΜ, in %). The “cell viability (kinase inhibitor library screening)” value was determined as 100.1 in [7] (A375 Parental, 1μΜ, in %); 50.6 in series [7] (A375 Parental, 10μΜ, in %); 57.6 in [8] (501Mel Parental, 10μΜ, in %); 44.5 in series [9] (A375 GP, 10μΜ, in %).
Regarding `COc1cc(Nc2ncc(F)c(Nc3ccc4c(n3)NC(=O)C(C)(C)O4)n2)cc(OC)c1OC.O=S(=O)(O)c1ccccc1` [R406], the “cell viability (kinase inhibitor library screening)” value worked out at 86.1 in [1] (501Mel GP, 1μΜ, in %); 50.0 in series [1] (501Mel GP, 10μΜ, in %); 99.5 in [2] (A375 XP, 1μΜ, in %); 69.5 in series [2] (A375 XP, 10μΜ, in %); 102.9 in series [3] (501Mel XP, 1μΜ, in %); 48.7 in [3] (501Mel XP, 10μΜ, in %). In addition, the “cell viability (kinase inhibitor library screening)” value in series [4] (IGR37 GP, 1μΜ, in %) came to 90.2; in series [4] (IGR37 GP, 10μΜ, in %), 56.0; in series [5] (IGR37 Parental, 1μΜ, in %) it was 103.3; in series [5] (IGR37 Parental, 10μΜ, in %), 95.3; in [6] (IGR37 XP, 1μΜ, in %), 89.4; in series [6] (IGR37 XP, 10μΜ, in %), 27.5. Moreover, the “cell viability (kinase inhibitor library screening)” value is given as 104.7 in series [7] (A375 Parental, 1μΜ, in %); 58.1 in series [7] (A375 Parental, 10μΜ, in %); 89.8 in series [8] (501Mel Parental, 1μΜ, in %); 71.4 in [8] (501Mel Parental, 10μΜ, in %); 54.6 in [9] (A375 GP, 10μΜ, in %).
